Source: patent US12240844B2 (Voronoi, Inc., priority 2019, dated 2025)

Columns and labels:
[1] = system: TNF-α; test: TNF-α secretion inhibition in LPS-treated THP-1 cells (ELISA); format: cell-based; conditions: Homo sapiens, compound 0.5 μM, LPS 500 ng/ml, 24 hours, read-out: THP-1/TNF-a (% inhib)
Summary of the method: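 Human monocytic THP-1 cells were pre-cultured 16 h at 37° C., then treated with compound at 0.5 μM final, followed by LPS at 500 ng/ml final. After 24 h, IL-6 and TNF-α in culture supernatant were quantified by ELISA with absorbance read at 450 nm.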

[2] = biological target: LRRK2 (G2019S) (Homo sapiens, UniProt Q5S007, G2019S); test: scanMAX Kinase panel (DiscoverX), % control; format: binding; parameters: purchased DiscoverX; conditions: <35% = active
Description: (§1) Specifically, for Examples 162, 160, 105, 217, 205, 96, 207, 184, 206, 221, 238, and 237 selected among the example compounds of the present invention, it was decided to measure enzyme (kinase) selectivity by DiscoverX, and the experiment was conducted using a panel for scanMAX™ Kinase analysis. At this time, the concentration of the drug treated with the enzyme was 1 uM in DMSO, the control percentage (% control) was determined in the same way as in Equation 1 below, and the results were shown in Table 6 below. [formula] Here, the positive control refers to a compound showing a control percentage of 0%, and the negative control is DMSO, indicating a control percentage of 100%. Also, in the enzyme selectivity of the present invention, if the control percentage for each enzyme was <35% (i.e., less than 35%), it was determined to have activity against the relevant enzyme.

[3] = biological target: T1, TTK (Homo sapiens, UniProt P33981); test: scanMAX Kinase panel (DiscoverX), % control; format: binding; parameters: purchased DiscoverX; conditions: <35% = active
T1 sequence (P33981 1-857): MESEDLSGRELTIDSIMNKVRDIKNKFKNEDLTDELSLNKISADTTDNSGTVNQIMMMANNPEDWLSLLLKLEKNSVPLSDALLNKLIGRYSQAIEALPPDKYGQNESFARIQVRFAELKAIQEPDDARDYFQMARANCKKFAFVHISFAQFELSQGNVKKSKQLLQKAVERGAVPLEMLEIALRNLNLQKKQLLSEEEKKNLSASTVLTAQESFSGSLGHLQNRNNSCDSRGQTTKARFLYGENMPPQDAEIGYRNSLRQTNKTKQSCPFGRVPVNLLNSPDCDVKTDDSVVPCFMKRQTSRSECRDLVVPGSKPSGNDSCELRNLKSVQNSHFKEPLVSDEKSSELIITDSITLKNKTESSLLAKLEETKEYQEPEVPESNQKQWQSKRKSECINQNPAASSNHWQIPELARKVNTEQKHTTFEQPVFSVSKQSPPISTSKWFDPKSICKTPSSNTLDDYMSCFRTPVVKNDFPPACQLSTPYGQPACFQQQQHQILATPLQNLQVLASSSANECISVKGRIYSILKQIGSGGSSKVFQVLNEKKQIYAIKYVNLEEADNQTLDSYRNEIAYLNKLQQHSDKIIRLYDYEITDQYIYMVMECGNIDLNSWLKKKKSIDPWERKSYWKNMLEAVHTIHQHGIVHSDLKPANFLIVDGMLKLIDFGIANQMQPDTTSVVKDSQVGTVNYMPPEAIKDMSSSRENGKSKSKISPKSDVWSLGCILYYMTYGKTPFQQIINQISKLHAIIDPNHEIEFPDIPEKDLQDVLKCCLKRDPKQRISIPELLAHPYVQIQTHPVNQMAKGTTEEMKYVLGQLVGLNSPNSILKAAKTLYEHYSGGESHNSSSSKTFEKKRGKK
Description: as §1

[4] = system: SHP-77; test: SHP-77 cancer cell proliferation inhibition (Cell Titer-Glo); format: cell-based; conditions: Homo sapiens, SHP77, SHP-77 small cell lung cancer cell line, 72 hours
Summary of the method: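 GI50 comes from CellTiter-Glo luminescence, read 10 min after reagent addition at RT, following 72 h compound treatment. Eleven concentrations were used (⅓ steps, highest 10 μM final) on 2000 cells/well. MDA-MB-231 and MDA-MB-468 were grown in DMEM, SHP-77 in RPMI.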

LRRK2 (G2019S), sequence (Q5S007 whole entry G2019S): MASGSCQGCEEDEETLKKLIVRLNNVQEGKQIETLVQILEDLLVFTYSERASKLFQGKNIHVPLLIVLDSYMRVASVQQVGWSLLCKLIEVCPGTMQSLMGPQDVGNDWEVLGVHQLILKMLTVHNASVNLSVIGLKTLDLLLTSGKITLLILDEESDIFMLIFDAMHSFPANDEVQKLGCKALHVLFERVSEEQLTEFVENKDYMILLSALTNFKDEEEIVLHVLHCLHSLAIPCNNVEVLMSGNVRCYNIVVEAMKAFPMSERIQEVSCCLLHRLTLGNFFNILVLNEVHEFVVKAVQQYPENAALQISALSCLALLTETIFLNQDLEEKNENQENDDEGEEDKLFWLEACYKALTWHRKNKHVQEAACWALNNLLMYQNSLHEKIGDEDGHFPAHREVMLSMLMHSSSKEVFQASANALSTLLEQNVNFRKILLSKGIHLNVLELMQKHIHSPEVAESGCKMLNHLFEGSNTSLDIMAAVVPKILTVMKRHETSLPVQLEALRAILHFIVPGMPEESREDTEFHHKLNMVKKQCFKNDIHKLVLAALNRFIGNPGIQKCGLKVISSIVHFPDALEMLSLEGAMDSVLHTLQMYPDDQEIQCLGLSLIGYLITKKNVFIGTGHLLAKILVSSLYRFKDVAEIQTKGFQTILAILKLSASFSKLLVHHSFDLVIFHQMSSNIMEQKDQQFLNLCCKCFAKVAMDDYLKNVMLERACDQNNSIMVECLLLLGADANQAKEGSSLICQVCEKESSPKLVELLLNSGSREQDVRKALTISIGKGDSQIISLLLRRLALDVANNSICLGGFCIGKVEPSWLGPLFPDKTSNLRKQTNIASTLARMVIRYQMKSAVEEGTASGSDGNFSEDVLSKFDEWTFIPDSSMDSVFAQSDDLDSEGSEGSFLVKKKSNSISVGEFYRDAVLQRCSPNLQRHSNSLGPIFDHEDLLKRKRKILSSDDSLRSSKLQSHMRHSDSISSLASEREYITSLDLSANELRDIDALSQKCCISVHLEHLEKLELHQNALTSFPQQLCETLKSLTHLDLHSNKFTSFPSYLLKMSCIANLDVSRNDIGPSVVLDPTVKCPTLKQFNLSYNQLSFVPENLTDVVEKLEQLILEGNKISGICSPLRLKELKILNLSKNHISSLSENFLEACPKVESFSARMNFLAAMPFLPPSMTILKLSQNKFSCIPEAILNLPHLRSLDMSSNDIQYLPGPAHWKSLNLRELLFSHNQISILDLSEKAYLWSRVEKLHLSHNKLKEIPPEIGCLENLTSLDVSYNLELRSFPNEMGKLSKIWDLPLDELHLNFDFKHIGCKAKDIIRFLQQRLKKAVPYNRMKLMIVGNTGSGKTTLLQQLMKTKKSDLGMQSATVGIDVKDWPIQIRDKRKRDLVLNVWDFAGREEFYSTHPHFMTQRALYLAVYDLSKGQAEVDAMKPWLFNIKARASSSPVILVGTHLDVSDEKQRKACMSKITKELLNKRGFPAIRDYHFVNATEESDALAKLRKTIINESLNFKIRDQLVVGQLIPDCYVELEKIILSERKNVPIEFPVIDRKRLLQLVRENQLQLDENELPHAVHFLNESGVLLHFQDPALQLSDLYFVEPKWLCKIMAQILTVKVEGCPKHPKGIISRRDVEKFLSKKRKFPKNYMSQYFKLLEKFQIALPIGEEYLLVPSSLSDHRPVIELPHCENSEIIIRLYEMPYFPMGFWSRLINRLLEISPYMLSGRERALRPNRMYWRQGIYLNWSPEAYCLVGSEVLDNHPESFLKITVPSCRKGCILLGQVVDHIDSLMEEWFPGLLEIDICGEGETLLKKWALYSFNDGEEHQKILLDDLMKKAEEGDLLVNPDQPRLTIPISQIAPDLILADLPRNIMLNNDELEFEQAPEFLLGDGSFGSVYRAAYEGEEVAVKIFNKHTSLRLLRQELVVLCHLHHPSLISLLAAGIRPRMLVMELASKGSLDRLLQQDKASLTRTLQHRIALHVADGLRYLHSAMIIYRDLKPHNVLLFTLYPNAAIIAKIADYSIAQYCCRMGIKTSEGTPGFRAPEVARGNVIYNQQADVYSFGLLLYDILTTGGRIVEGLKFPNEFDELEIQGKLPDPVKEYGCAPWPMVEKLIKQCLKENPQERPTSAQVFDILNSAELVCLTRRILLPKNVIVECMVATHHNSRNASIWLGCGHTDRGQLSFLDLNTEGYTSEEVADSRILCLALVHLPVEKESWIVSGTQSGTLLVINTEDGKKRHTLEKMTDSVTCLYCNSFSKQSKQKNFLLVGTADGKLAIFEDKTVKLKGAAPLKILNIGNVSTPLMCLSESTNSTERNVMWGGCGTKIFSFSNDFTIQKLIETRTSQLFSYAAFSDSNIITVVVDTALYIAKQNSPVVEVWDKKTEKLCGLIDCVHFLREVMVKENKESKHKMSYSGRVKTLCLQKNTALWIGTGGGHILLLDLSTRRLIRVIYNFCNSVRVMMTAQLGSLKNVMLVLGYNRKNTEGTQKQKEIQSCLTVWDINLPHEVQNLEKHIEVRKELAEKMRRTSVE

| SMILES | inhibition at 0.5 µM [1] | GI50 [4] | also measured |
| --- | --- | --- | --- |
| CCNc1cc(Nc2ccc(C(=O)N3CCC(N4CCOCC4)CC3)c3c2OCC3)nc2[nH]cc(C(F)(F)F)c12 [Example 90, (7-((4-(ethylamino)-3-(trifluoromethyl)-1H-pyrrolo[2,3-b]pyridin-6-yl)amino)-2,3-dihydrobenzofuran-4-yl)(4-morpholinopiperidin-1-yl)methanone] | 12.4% | – | – |
| CCCNc1cc(Nc2ccc(C(=O)N3CCC(N4CCOCC4)CC3)c3c2OCCO3)nc2[nH]cc(C(F)(F)F)c12 [Example 162, (4-morpholinopiperidin-1-yl)(8-((4-(propylamino)-3-(trifluoromethyl)-1H-pyrrolo[2,3-b]pyridin-6-yl)amino)-2,3-dihydrobenzo[b] [1,4]dioxin-5-yl)methanone] | – | – | remaining binding at 1 µM [2]: 0.35%; remaining binding at 1 µM [3]: 3.4% |
| CCNc1cc(Nc2ccc(P3(=O)CCN(C4CCOCC4)CC3)cc2OC)nc2[nH]cc(C(F)(F)F)c12 [Example 94, 4-(4-((4-(ethylamino)-3-(trifluoromethyl)-1H-pyrrolo[2,3-b]pyridin-6-yl)amino)-3-methoxyphenyl)-1-(tetrahydro-2H-pyran-4-yl)-1,4-azaphosphinane 4-oxide] | 6.6% | – | – |
| CNc1cc(Nc2ccc(S(=O)(=O)N3CCC(N4CCOCC4)CC3)c3c2OCCO3)nc2[nH]cc(C(F)(F)F)c12 [Example 233, N^4-methyl-N^6-(8-((4-morpholinopiperidin-1-yl)sulfonyl)-2,3-dihydrobenzo [b] [1,4]dioxin-5-yl)-3-(trifluoromethyl)-1H-pyrrolo[2,3-b]pyridine-4,6-diamine] | 12.5% | 301 to 1000 nM | – |
| COCCNc1cc(Nc2ccc(S(=O)(=O)N3CCC(N4CCOCC4)CC3)c3c2OCCO3)nc2[nH]cc(C(F)(F)F)c12 [Example 97, N^4-(2-methoxyethyl)-N^6-(8-((4-morpholonopiperidin-1-yl)sulfonyl)-2,3-dihydrobenzo[b] [1,4]dioxin-5-yl)-3-(trifluoromethyl)-1H-pyrrolo[2,3-b]pyridine-4,6-diamine] | 5.5% | 301 to 1000 nM | – |
| CNc1cc(Nc2ccc(C(=O)N3CCC(N4CCOCC4)CC3)c3c2OCC3)nc2[nH]cc(C(F)(F)F)c12 [Example 234, (7-((4-(methylamino)-3-(trifluoromethyl)-1H-pyrrolo[2,3-b]pyridin-6-yl)amino)-2,3-dihydrobenzofuran-4-yl)(4-morpholinopiperidin-1-yl)methanone] | 12.4% | – | – |
| O=C(c1ccc(Nc2cc(C3CC3)c3c(C(F)(F)F)c[nH]c3n2)c2c1OCCO2)N1CCC(N2CCOCC2)CC1 [Example 221, (8-((4-cyclopropyl-3-(trifluoromethyl)-1H-pyrrolo[2,3-b]pyridin-6-yl)amino)-2,3-dihydrobenzo [b] [1,4]dioxin-5-yl)(4-morpholinopiperidin-1-yl)methanone] | – | – | remaining binding at 1 µM [2]: 5.5%; remaining binding at 1 µM [3]: 4.5% |
| COc1cc(S(=O)(=O)N2CCC(N3CCOCC3)CC2)ccc1Nc1cc(NCCS(C)(=O)=O)c2c(C(F)(F)F)c[nH]c2n1 [Example 194, N^6-(2-methoxy-4-((4-morpholinopiperidin-1-yl)sulfonyl)phenyl)-N^4-(2-(methylsulfonyl)ethyl)-3-(trifluoromethyl)-1H-pyrrolo[2,3-b]pyridine-4,6-diamine] | 37.6% | 301 to 1000 nM | – |
| CCNc1cc(Nc2cc(F)c(S(=O)(=O)N3CCC(N4CCOCC4)CC3)cc2OC)nc2[nH]cc(C(F)(F)F)c12 [Example 266, N^4-ethyl-N^6-(5-fluoro-2-methoxy-4-((4-morpholinopiperidin-1-yl)sulfonyl)phenyl)-3-(trifluoromethyl)-1H-pyrrolo[2,3-b]pyridine-4,6-diamine] | – | 301 to 1000 nM | – |
| CNc1cc(Nc2ccc(S(=O)(=O)N3CCC(N4C[C@H]5C[C@@H]4CO5)CC3)cc2OC)nc2[nH]cc(C(F)(F)F)c12 [Example 243, N^6-(4-((4-((1R,4R)-2-oxa-5-azabicyclo[2.2.1]heptan-5-yl)piperidin-1-yl)sulfonyl)-2-methoxyphenyl)-N^4-methyl-3-(trifluoromethyl)-1H-pyrrolo[2,3-b]pyridine-4,6-diamine] | 2.1% | 51 to 100 nM | – |
| COc1cc(S(=O)(=O)N2CCC(N3CCOCC3)CC2)ccc1Nc1cc(C2CC2)c2c(C#N)c[nH]c2n1 [Example 228, 4-cyclopropyl-6-((2-methoxy-4-((4-morpholinopiperidin-1-yl)sulfonyl)phenyl)amino)-1H-pyrrolo[2,3-b]pyridine-3-carbonitrile] | – | 51 to 100 nM | – |
| CCNc1cc(Nc2ccc(C(=O)N3CCC(N4C[C@H]5C[C@@H]4CO5)CC3)c3c2OCC3)nc2[nH]cc(C(F)(F)F)c12 [Example 244, (4-((1R,4R)-2-oxa-5-azabicyclo[2.2.1]heptan-5-yl)piperidin-1-yl)(7-((4-(ethylamino)-3-(trifluoromethyl)-1H-pyrrolo[2,3-b]pyridin-6-yl)amino)-2,3-dihydrobenzofuran-4-yl)methanone] | 12.7% | – | – |
| CCNc1cc(Nc2ccc(C(=O)N3CCN(C4COC4)CC3)c3c2OCCO3)nc2[nH]cc(C(F)(F)F)c12 [Example 173, (8-((4-(ethylamino)-3-(trifluoromethyl)-1H-pyrrolo[2,3-b]pyridin-6-yl)amino)-2,3-dihydrobenzo[b] [1,4]dioxin-5-yl)(4-(oxetan-3-yl)piperazin-1-yl)methanone] | 5.9% | – | – |
| CCNc1cc(Nc2ccc(P3(=O)CCN(C4CC4)CC3)cc2OC)nc2[nH]cc(C(F)(F)F)c12 [Example 206, 1-cyclopropyl-4-(4-((4-(ethylamino)-3-(trifluoromethyl)-1H-pyrrolo[2,3-b]pyridin-6-yl)amino)-3-methoxyphenyl)-1,4-azaphosphinane 4-oxide] | – | – | remaining binding at 1 µM [2]: 28%; remaining binding at 1 µM [3]: 0.65% |
| CNc1cc(Nc2ccc(C(=O)N3CC[C@@H](N4CCOCC4)C3)c3c2OCC3)nc2[nH]cc(C(F)(F)F)c12 [Example 214, (R)-(7-((4-(methylamino)-3-(trifluoromethyl)-1H-pyrrolo[2,3-b]pyridin-6-yl)amino)-2,3-dihydrobenzofuran-4-yl)(3-morpholinopyrrolidin-1-yl)methanone] | 12% | – | – |
| COc1cc(S(=O)(=O)N2CCOCC2)ccc1Nc1cc(C2CC2)c2c(C(F)(F)F)c[nH]c2n1 [Example 222, 4-cyclopropyl-N-(2-methoxy-4-(morpholinosulfonyl)phenyl)-3-(trifluoromethyl)-1H-pyrrolo[2,3-b]pyridin-6-amine] | – | 301 to 1000 nM | – |
| CCNc1cc(Nc2ccc(C(=O)N3CCN(C4COC4)CC3)c3c2OCC3)nc2[nH]cc(C(F)(F)F)c12 [Example 248, (7-((4-(ethylamino)-3-(trifluoromethyl)-1H-pyrrolo[2,3-b]pyridin-6-yl)amino)-2,3-dihydrobenzofuran-4-yl)(4-(oxetan-3-yl)piperazin-1-yl)methanone] | 9.2% | – | – |
| COc1cc(S(=O)(=O)N2CCOCC2)ccc1Nc1cc(C2CC2)c2c(C#N)c[nH]c2n1 [Example 227, 4-cyclopropyl-6-((2-methoxy-4-(morpholinosulfonyl)phenyl)amino)-1H-pyrrolo[2,3-b]pyridine-3-carbonitrile] | – | 301 to 1000 nM | – |
| O=C(c1ccc(Nc2cc(C3CC3)c3c(C(F)(F)F)c[nH]c3n2)c2c1CCO2)N1CCOCC1 [Example 91, (7-((4-cyclopropyl-3-(trifluoromethyl)-1H-pyrrolo[2,3-b]pyridin-6-yl)amino)-2,3-dihydrobenzofuran-4-yl)(morpholino) methanone] | 9.6% | – | – |
